{"source": "patent US9481636B2", "about": "“N-benzylaniline derivative and uses thereof” (Nanjing Medical University, priority 2011, dated 2016)", "origin": "cited, not measured here", "key": {"[1]": {"system": "complete Freund's adjuvant (CFA)-induced muscle hyperalgesia", "conditions": "intramuscular injection; dose-dependent; Neuroreport, 2005, 16, 485; cited from earlier work"}, "[2]": {"system": "mechanical hyperalgesia and thermal hyperalgesia", "conditions": "pain models in rodents; Brit. J. Pharmacol., 2009, 158, 494-506; cited from earlier work"}, "[3]": {"system": "capsaicin-induced mechanical and thermal hyperalgesia", "conditions": "intrathecal injection, Neuropharmacology, 2005, 48, 325; cited from earlier work"}}, "data": [{"smiles": "NC(CCCP(=O)(O)O)C(=O)O", "note": "(stereo not drawn) [AP-5]", "values": [{"measurement": "CFA-induced muscle hyperalgesia", "setting": "[1]", "result": "reduce"}]}, {"smiles": "Oc1c(Cl)cc(Cl)cc1CNc1ccc2[nH]nnc2c1", "note": "[IC87201, 2-[(1H-benzotriazole-5-amino)methyl]-4,6-dichlorophenol]", "values": [{"measurement": "mechanical hyperalgesia and thermal hyperalgesia", "setting": "[2]", "result": "significant inhibitory effects"}]}, {"smiles": "C[C@]12N[C@H](Cc3ccccc31)c1ccccc12", "note": "[MK-801]", "values": [{"measurement": "mechanical allodynia and thermal hyperalgesia", "setting": "[3]", "result": "significantly alleviate"}]}]}
